Measurements published in publication PMC10648852, “Molecular drivers of resistance to sulbactam-durlobactam in contemporary clinical isolates of Acinetobacter baumannii” (Antimicrobial Agents and Chemotherapy, 2023).
Like-named read-outs stand apart in the source and are kept apart here.

Key:
[1] = test system: A. baumannii PBP3 S390T; design: method as in McLeod et al. (2018); details: average ± SD, ref McLeod et al. (2018); cited from earlier work
[2] = test system: A. baumannii PBP3 S395F; design: method as in McLeod et al. (2018); details: average ± SD, ref McLeod et al. (2018); cited from earlier work
[3] = test system: A. baumannii PBP3 S390T; test: Acylation rate constant (kinact/Ki), fluorescence anisotropy competition with BOCILLIN; details: variant data from McLeod et al. (2018)
[4] = test system: isogenic A. baylyi ADP1 panel encoding wildtype or mutant PBP3; test: Broth microdilution MIC, isogenic A. baylyi panel (PBP3 variants with or without overexpressed β-lactamases); format: cell-based; details: for MIC: Acinetobacter baylyi, A. baylyi
Description: To understand the effect of PBP3 variants on whole cell activity in the absence of other resistance determinants, the MIC values of sulbactam, SUL-DUR and comparator β-lactams were measured against an isogenic A. baylyi panel engineered to contain individual strains in which the endogenous PBP3 was replaced with the variant of interest.
Each of the A. baylyi panel members were then transformed with plasmids that constitutively expressed five distinct, representative β-lactamases commonly found in Acinetobacter clinical isolates (TEM-1, ADC-30, OXA-23, OXA-24 or OXA-66) and evaluated for changes in antibiotic susceptibility. […] . […] .
The isogenic A. baylyi panel used for chromosomal expression of various PBP3 mutants with or without constitutive expression of various β-lactamases were constructed as part of this study. The A. baylyi ADP1 PBP3 ORF was cloned into pUC19 with a gentamicin cassette inserted downstream of the PBP3 ORF for selection purposes. Additionally, 500 bp of flanking homology to the ADP1 genome were inserted upstream of the PBP3 ORF and downstream of the gentamicin cassette. […] Linear DNA consisting of the 500 bp upstream-PBP3-Gent-500 bp downstream fragment was cloned out of the pUC19 plasmid by PCR and used for transformation of the ADP1 strain. The strain was grown at 30°C overnight in LB medium shaking at 250 rpm. Seventy microliters of the overnight ADP1 culture were combined with 1 mL of fresh LB and 200 ng of linear DNA fragment and incubated for 5 h at 30°C and shaking at 200 rpm. Various dilutions of each culture were plated on LB agar supplemented with 10 µg/mL of gentamicin to select for transformants with successful chromosomal integrations. Integrants were verified by Sanger sequencing using purified genomic DNA.
For the constitutive expression of various β-lactamases, ORFs of bla TEM-1, bla ADC-30, bla OXA-23, bla OXA-24, and bla OXA-66 were cloned by PCR from various clinical strains that encode these genes and inserted into the pWH1266 plasmid modified to encode a kanamycin cassette for selection. These plasmids along with an empty vector were used to transform each of the A. baylyi ADP1 strains engineered above that encode wild-type PBP3 or variants. Transformations were carried out as done above with selection on LB agar supplemented with 20 µg/mL of kanamycin.
(§1) Antimicrobial susceptibility testing was performed using broth microdilution following standardized methods established by the Clinical Laboratory Standards Institute (CLSI) ([35], [36]). Quality control testing was performed as specified by CLSI using A. baumannii NCTC 13304 ([35]). MIC values were interpreted using CLSI breakpoints for all antimicrobial agents except those for which CLSI breakpoints are not available ([35]). SUL-DUR was tested as twofold dilutions of sulbactam in combination with a fixed concentration of 4 µg/mL durlobactam ([35]).

[5] = test system: A. baumannii PBP3 Q488K; test: Acylation rate constant (kinact/Ki), fluorescence anisotropy competition with BOCILLIN
[6] = test system: A. baumannii wild-type PBP3; test: as above; details: Wildtype PBP3
[7] = test system: A. baumannii PBP3 H370Y; test: as above
[8] = test system: A. baumannii PBP3 N392T; test: as above
[9] = test system: A. baumannii PBP3 N377Y; test: as above
[10] = test system: A. baumannii PBP3 S395F; test: as above; details: variant data from McLeod et al. (2018)
[11] = test system: A. baumannii KAB1544 and efflux overexpression mutants; test: Broth microdilution MIC, isogenic A. baumannii overexpression efflux mutants; format: cell-based; details: for MIC: Acinetobacter baumannii
Description: (§2) To further assess the role of efflux in SUL-DUR activity against Acinetobacter spp., two panels of A. baumannii isogenic strains were tested. The first consisted of 7 members of an A. baumannii transposon library ([28]) with single gene disruptions in the adeABC, adeIJK, or adeT loci as compared to the parent strain, AB5075. […] This panel of strains consists of four different point mutants in AdeR and five different point mutants in AdeS, which result in the upregulation of AdeABC expression. In addition, this panel contains chromosomal deletions of adeL and adeN, which result in overexpression of AdeFGH and AdeIJK, respectively ([29]).
In contrast, sulbactam, SUL-DUR, and imipenem MIC values were unaffected by these mutants (Table 4).
(§3) The AB5075 parent strain as well as transposon interrupted AdeABC, AdeIJK, and AdeT were purchased from the Manoil laboratory at the University of Washington from their arrayed transposon mutant collection ([28]). The KAB1544 parent as well as efflux pump regulator mutants and deletions were constructed as previously described ([29]).
as §1

[12] = test system: A. baumannii AB5075 and transposon mutants in efflux genes; test: Broth microdilution MIC, isogenic A. baumannii transposon mutants in efflux genes; format: cell-based; details: for In vitro activity (MIC): tested in duplicate
Description: as §2
The parent and each isogenic mutant strain in both panels was measured for susceptibility to sulbactam, durlobactam, SUL-DUR, imipenem, and gentamicin. […].
as §3, §1

[13] = test system: ARC7093 (AdeJ [G288S]) versus NCTC 13304; test: Ethidium bromide uptake (accumulation) assay; format: cell-based, A. baumannii; details: over 20 min; 8 µM EtBr; P < 0.0001
Description: This AdeJ variant has been previously described in the context of carbapenem resistance due to the overexpression of the AdeJ pump, although the association was only made based on genotype, not phenotype ([31]). The efflux capacity of ARC7093 was, therefore, compared to NCTC 13304, a SUL-DUR-susceptible clinical isolate with wild-type AdeIJK, in an ethidium bromide accumulation assay. […] Therefore, the AdeJ (G288S) variant may play a role in susceptibility to SUL-DUR in Acinetobacter spp.
NCTC 13304 and ARC7093 were cultured overnight on Tryptic Soy Blood Agar plates. Single colonies were used to inoculate 2 mL of Mueller-Hinton Cation-adjusted Broth (MHBII) and grown overnight at 35°C with shaking. On the day of the experiment, the overnight culture was diluted 100-fold into a flask containing 20 mL of MHBII and grown under the same conditions to OD600 ~0.2. Two-mL aliquots of this logarithmic phase culture were centrifuged. The pellets were gently re-suspended in 2-mL of sterile phosphate-buffered saline (pH 7.0) containing 8 µM EtBr. The cells were transferred to a black-wall, clear-bottom 96-well microplate, and EtBr fluorescence (excitation—530 nm, emission—590 nm) was measured over a period of 20 min in a SpectraMax M5e plate reader (Molecular Devices). Statistical significance for the accumulation of ethidium bromide was determined using an unpaired t-test.

[14] = AdeR A91V, AdeABC overexpressed, read-out: MIC
[15] = AdeR D20N, AdeABC overexpressed, read-out: MIC
[16] = AdeR E219A, AdeABC overexpressed, read-out: MIC
[17] = AdeR P116L, AdeABC overexpressed, read-out: MIC
[18] = AdeS A94V, AdeABC overexpressed, read-out: MIC
[19] = AdeS G30D, AdeABC overexpressed, read-out: MIC
[20] = AdeS G103D, AdeABC overexpressed, read-out: MIC
[21] = AdeS R152K, AdeABC overexpressed, read-out: MIC
[22] = AdeS T153M, AdeABC overexpressed, read-out: MIC
[23] = Parent (KAB1544), no efflux pump overexpressed, read-out: MIC

C[C@H]1[C@H](NC(=O)/C(=N\OC(C)(C)C(=O)O)c2csc(N)n2)C(=O)N1S(=O)(=O)O [aztreonam]
k inact/K i [1]: 900 ± 300 ([3]) M^-1s^-1
k inact/K i [2]: 110 ± 20 ([3]) M^-1s^-1
% WT [3]: 128.6%
MIC ([4]; PBP3 H370Y, overexpressed ADC-30): 32 mg/L
MIC ([4]; PBP3 H370Y, overexpressed OXA-23): 64 mg/L
MIC ([4]; PBP3 H370Y, overexpressed OXA-24): 64 mg/L
MIC ([4]; PBP3 H370Y, overexpressed OXA-66): 64 mg/L
MIC ([4]; PBP3 H370Y, overexpressed TEM-1): 64 mg/L
MIC ([4]; PBP3 H370Y, β-lactamase None (empty vector)): 64 mg/L
MIC ([4]; PBP3 Wildtype, overexpressed ADC-30, read-out: MIC): 32 mg/L
MIC ([4]; PBP3 Wildtype, overexpressed OXA-23, read-out: MIC): 64 mg/L
MIC ([4]; PBP3 Wildtype, overexpressed OXA-24, read-out: MIC): 32 mg/L
MIC ([4]; PBP3 Wildtype, overexpressed OXA-66, read-out: MIC): 32 mg/L
MIC ([4]; PBP3 Wildtype, overexpressed TEM-1, read-out: MIC): 32 mg/L
MIC ([4]; PBP3 Wildtype, β-lactamase None (empty vector), read-out: MIC): 32 mg/L
changes in MIC values in the presence of β-lactamase ([4]; wildtype PBP3 strain, five overexpressed β-lactamases): ≤ 2 fold
% WT [5]: 65.7%
k inact/K i ([5]; average ± SD): 460 ± 50 ([2]) M^-1s^-1
% WT [6]: 100%
k inact/K i ([6]; average ± SD): 700 ± 100 ([10]) M^-1s^-1
% WT [7]: 61.4%
k inact/K i ([7]; average ± SD): 430 ± 30 ([2]) M^-1s^-1
% WT [8]: 22.9%
k inact/K i ([8]; average ± SD): 160 ± 20 ([2]) M^-1s^-1
% WT [9]: 72.9%
k inact/K i ([9]; average ± SD): 510 ± 60 ([2]) M^-1s^-1
% WT [10]: 15.7%

CC1=C[C@@H]2CN(C(=O)N2OS(=O)(=O)O)[C@@H]1C(N)=O [durlobactam]
MIC [11, 14]: 32 mg/L
MIC [11, 15]: 64 mg/L
MIC [11, 16]: 128 mg/L
MIC [11, 17]: 64 mg/L
MIC [11, 18]: 64 mg/L
MIC [11, 19]: 64 mg/L
MIC [11, 20]: 64 mg/L
MIC [11, 21]: 64 mg/L
MIC [11, 22]: 32 mg/L
MIC [11, 23]: 128 mg/L
MIC ([11]; ΔadeL, AdeFGH overexpressed): 64 mg/L
MIC ([11]; ΔadeN, AdeIJK overexpressed): 128 mg/L
In vitro activity (MIC) ([12]; Parent (AB5075)): 128 mg/L
In vitro activity (MIC) ([12]; adeA::tn in AB5075): 64 mg/L
In vitro activity (MIC) ([12]; adeB::tn in AB5075): 256 mg/L
In vitro activity (MIC) ([12]; adeC::tn in AB5075): 256 mg/L
In vitro activity (MIC) ([12]; adeI::tn in AB5075): 64 mg/L
In vitro activity (MIC) ([12]; adeJ::tn in AB5075): 32 mg/L
changes in MIC values as compared to the parent strain ([12]; adeK::Tn mutant, AB5075): 4 fold
In vitro activity (MIC) ([12]; adeK::tn in AB5075): 32 mg/L
In vitro activity (MIC) ([12]; adeT::tn in AB5075): 128 mg/L
changes in MIC values as compared to the parent strain ([12]; {}): 4 fold

CC[n+]1c(-c2ccccc2)c2cc(N)ccc2c2ccc(N)cc21 [ethidium bromide]
accumulation of ethidium bromide in ARC7093 versus NCTC 13304 [13]: significantly lower

CNC(C)C1CCC(N)C(OC2C(N)CC(N)C(OC3OCC(C)(O)C(NC)C3O)C2O)O1 (stereo not shown) [gentamicin]
MIC [11, 14]: 32 mg/L
MIC [11, 15]: 16 mg/L
MIC [11, 16]: 2 mg/L
MIC [11, 17]: 16 mg/L
MIC [11, 18]: 16 mg/L
MIC [11, 19]: 32 mg/L
MIC [11, 20]: 2 mg/L
MIC [11, 21]: 16 mg/L
MIC [11, 22]: 32 mg/L
MIC [11, 23]: 2 mg/L
MIC ([11]; ΔadeL, AdeFGH overexpressed): 2 mg/L
MIC ([11]; ΔadeN, AdeIJK overexpressed): 2 mg/L
change in MIC values relative to the parent strain ([11]; {}): 8- to 16 fold
MIC shift as compared to the parent strain ([12]; AdeA disruption, AB5075): > 64 fold
MIC shift as compared to the parent strain ([12]; AdeB disruption, AB5075): > 8 fold
In vitro activity (MIC) ([12]; Parent (AB5075)): > 64 mg/L
In vitro activity (MIC) ([12]; adeA::tn in AB5075): 1 mg/L
In vitro activity (MIC) ([12]; adeB::tn in AB5075): 8 mg/L
In vitro activity (MIC) ([12]; adeC::tn in AB5075): > 64 mg/L
In vitro activity (MIC) ([12]; adeI::tn in AB5075): > 64 mg/L
In vitro activity (MIC) ([12]; adeJ::tn in AB5075): > 64 mg/L
In vitro activity (MIC) ([12]; adeK::tn in AB5075): > 64 mg/L
In vitro activity (MIC) ([12]; adeT::tn in AB5075): > 64 mg/L
